Bridges are numbered along the chain shown (N, C = ends). [ ]: non-standard residue; d: D form. The star is where a group is joined. DOTA = O=C(O)CN1CCN(CC(=O)O)CCN(CC(=O)*)CCN(CC(=O)O)CC1; Biotin = O=C1N[C@H]2[C@H](CS[C@H]2CCCCC(=O)*)N1; Lys(Me3) = C[N+](C)(C)CCCC[C@H](N)C(=O)O; Cit = NC(=O)NCCC[C@H](N)C(=O)O; PEG4 = NCCOCCOCCOCCOCCC(=O)O
Target: T1, Nectin-4 (Homo sapiens, UniProt Q96NY8)
T1 sequence (Q96NY8 32-510): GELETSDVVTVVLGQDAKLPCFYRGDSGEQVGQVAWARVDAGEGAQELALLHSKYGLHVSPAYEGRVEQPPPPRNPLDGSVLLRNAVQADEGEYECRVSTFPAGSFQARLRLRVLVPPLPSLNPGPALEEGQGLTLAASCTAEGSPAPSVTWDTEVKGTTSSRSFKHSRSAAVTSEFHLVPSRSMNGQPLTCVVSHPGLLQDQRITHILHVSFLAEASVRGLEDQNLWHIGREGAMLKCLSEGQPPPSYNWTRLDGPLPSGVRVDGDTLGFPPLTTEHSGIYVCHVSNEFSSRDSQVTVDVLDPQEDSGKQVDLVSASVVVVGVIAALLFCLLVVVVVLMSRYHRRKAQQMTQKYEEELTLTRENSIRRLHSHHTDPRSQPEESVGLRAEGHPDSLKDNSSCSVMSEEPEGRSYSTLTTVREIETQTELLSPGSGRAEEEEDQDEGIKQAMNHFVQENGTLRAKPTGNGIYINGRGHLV
Assay: DELFIA whole cell binding assay, equilibrium binding affinity (KD), Table 2B
Details: not given
Procedure: A whole cell binding assay was used to estimate the equilibrium binding affinity (KD) or binding inhibition constant (Ki) of miniprotein ligands to cells expressing a target of interest. Cells were dispensed into a 384-well plate and incubated at 37° C., in 5% CO2 overnight. The next day cells were gently washed once in assay buffer prior to addition of europium chelated ligand. For KD determination, a miniprotein conjugated with europium chelate (DOTA or DTPA) in the presence or absence of 100-fold excess un-conjugated ligand was incubated with cells over 12 different concentrations ranging from 100 times below and above expected KD values. For Ki determination, a single concentration (KD equivalent concentration) of europium-chelate miniprotein was added to each well followed immediately by the addition of unconjugated competing ligand over 12 different concentrations ranging from 100 times below and above expected Ki values as before. The plate was incubated for 1.5 h at room temperature to reach binding equilibrium. Cells were then washed three times at room temperature with 1×PBS followed by the addition of 2 M HCl and incubated for two h at 37° C. Following this step, 2 M NaOH and fluorescent inducer solution were added to each well and incubated for 30 minutes at room temperature according to the manufacturer's protocol (Perkin-ELMER DELFIA assay). Plates were read on an Envision plate reader and a curve-fitting model was applied to estimate KD and Ki values using GraphPad Prism software. Mean DELFIA K; values for exemplary miniproteins are recorded in TABLE 9A.

| Molecule | Kd |
| --- | --- |
| {Biotin-PEG4}-CEYDEEFFTALA[Cit]LRGDDICSYIQAKFQYLPGLCIEEILDNLGCS-OH (disulfide 1-34, 20-44) [Compound C172] | 1.8 nM |
| {Biotin-PEG4}-CEYDEQFFTALKRLRGGDICDYIQASFQYLPGLCIEEILDNLGCS-OH (disulfide 1-34, 20-44) [Compound C196] | 1.6 nM |
| {Biotin-PEG4}-CEYDEQFFTALARLRGGDICEYIQAKFQYLPGLCIEEILDNLGCS-OH (disulfide 1-34, 20-44) [Compound C146] | 0.54 nM |
| {Biotin-PEG4}-CEYDEEFFTALARLRGGDICQYIQAKFAYVPGLCIEEILDNLGCS-OH (disulfide 1-34, 20-44) [Compound C155] | 1.1 nM |
| {Biotin-PEG4}-CEYDEEFFTALARLRGGDICEYIQAKFQYLPKLCIEEILDNLGCS-OH (disulfide 1-34, 20-44) [Compound C167] | 1.2 nM |
| {Biotin-PEG4}-CEYDEAFFTALARLRGGDICQYIQAKFQYLPGLCIEEILDNLGCS-OH (disulfide 1-34, 20-44) [Compound C151] | 0.68 nM |
| {Biotin-PEG4}-CEYDEEFFTALARLRGGDICYYIQAYFQYLPGLCIEEILDNLGCS-OH (disulfide 1-34, 20-44) [Compound C165] | 4.1 nM |
| {Biotin-PEG4}-CEYDEEFFTALKRLRGDDICEYIQASFQYLPGLCIEEILDNLGCS-OH (disulfide 1-34, 20-44) [Compound C181] | 3 nM |
| {Biotin-PEG4}-CEYDEEFFTALKRLRGDDICYYIQASFQYLPGLCIEEILDNLGCS-OH (disulfide 1-34, 20-44) [Compound C180] | 2.7 nM |
| {Biotin-PEG4}-CEYDEEFFTALKRLRGGDICEYIQA[Lys(Me3)]FQYLPGLCIEEILDNLGCS-OH (disulfide 1-34, 20-44) [Compound C201] | 0.68 nM |
| {Biotin-PEG4}-CEYDEEFFTALKRLRGGDICYYIQASFQYLPGECIEEILDNLGCS-OH (disulfide 1-34, 20-44) [Compound C177] | 2 nM |
| {Biotin-PEG4}-CDYDEEFFTALKRLRGGDICEYIQASFQYLPGLCIEEILDNLGCS-OH (disulfide 1-34, 20-44) [Compound C188] | 1.6 nM |
| {Biotin-PEG4}-CEYDEEFFTALKRLRGGDICYYIQAKFQYLPKLCIEEILDNLGCS-OH (disulfide 1-34, 20-44) [Compound C119] | 0.95 nM |
| {Biotin-PEG4}-CEYDEEFFTALA[Cit]LRGGDICSYIQAKFQYLPGLCIEEILDNLGCS-OH (disulfide 1-34, 20-44) [Compound C175] | 2.3 nM |
| {Biotin-PEG4}-CEYDEEFFTALKRLRGGDICEYIQASFQYLPGLCIEEILDNLGCS-OH (disulfide 1-34, 20-44) [Compound C178] | 1.4 nM |
| {Biotin-PEG4}-CDYDEEFFTALA[Cit]LRGGDICEYIQAKFQYLPGLCIEEILDNLGCS-OH (disulfide 1-34, 20-44) [Compound C176] | 1.3 nM |
| {Biotin-PEG4}-CDYDEEFFTALKRLRGDDICSYIQASFQYLPGLCIEEILDNLGCS-OH (disulfide 1-34, 20-44) [Compound C192] | 1.3 nM |
| {Biotin-PEG4}-CEYDEEFFTALA[Cit]LRGGDICEYIQAKFQYLPGLCIEEILDNLGCS-OH (disulfide 1-34, 20-44) [Compound C171] | 2.2 nM |
| {Biotin-PEG4}-CEYDEQFFTALKRLRGADICDYIQASFQYLPGLCIEEILDNLGCS-OH (disulfide 1-34, 20-44) [Compound C194] | 1.1 nM |

Same assay, conditions: Table 2B, binding to Nectin-4; read-out: Binding Affinity (KD)

| Molecule | Kd |
| --- | --- |
| Ac-CEYDEEFFTALARLRGGDICYYIQAKFQYLPGLCIEEILDNLGCS-OH (disulfide 1-34, 20-44) [Compound C124] | 1.1 nM |
| Ac-CEYDEEFFKGLKRLRGGDICYYIKKKFKKVPKLCIEEILDKLGC-OH (disulfide 1-34, 20-44) [Compound C80] | 2.7 nM |
| Ac-CEYDEEFFLGLKRLRGGDICYYIKKKFKKVPELCIEEILKKLGC-OH (disulfide 1-34, 20-44) [Compound C67] | 2.64 nM |
| Ac-CEYDEKFFTGLKRLRGGDICYYIKKKFKKVPKLCIEEILDKLGC-OH (disulfide 1-34, 20-44) [Compound C70] | 2.2 nM |
| Ac-CEYDEEFFLGLKRLRGGDICYYIKKKFKKVPDLCIEEILEKLGC-OH (disulfide 1-34, 20-44) [Compound C60] | 3.17 nM |
| Ac-CEYDEEFFAGLKRLRRGDICYYIKKKFDKVPDLCIEEILDKLGC-OH (disulfide 1-34, 20-44) [Compound C14] | 14.1 nM |
| Ac-CEYDEEFFLGLKRLRGGDICYYIKKKFKKVPDLCIEEILDKLGC-OH (disulfide 1-34, 20-44) [Compound C34] | 3.17 nM |

Test system: not listed separately
Assay: In vivo biodistribution of 111In-labeled miniproteins by SPECT/CT, HT-1376 xenograft
Design: species or system mouse
Details: female, athymic nude, mouse, in vivo
From the text: HT-1376 is a human cell line that expresses Nectin-4.
Humane endpoints: All animals were euthanized following the final imaging time point and carcasses were discarded according to IACUC protocols.
Image Processing: Images were generated as SPECT/CT pairs with the SPECT reported in units of activity.
Image generation: After the preprocessing described in A, individual maximum intensity projections (MIPs) were created with VivoQuant software for each subject at each time point and scaled in percent injected dose per gram (% ID/g). The CT for each image was windowed from −500 to 4500 Hounsfield Units (HU). The SPECT was windowed at various ranges to highlight different regions of uptake. Images were then stitched together using Image Magick based python tools to create montages of subjects over time and time points over groups.

| Molecule | tissue uptake at 4 h | tissue uptake at 24 h |
| --- | --- | --- |
| CC[C@H](C)[C@@H]1NC(=O)[C@H](Cc2ccc(O)cc2)NC(=O)[C@H](Cc2ccc(O)cc2)NC(=O)[C@@H]2CSSC[C@@H](C(=O)O)NC(=O)CNC(=O)[C@H](CC(C)C)NC(=O)[C@H](CC(N)=O)NC(=O)[C@H](CCC(=O)O)NC(=O)[C@H](CC(C)C)NC(=O)[C@H]([C@@H](C)CC)NC(=O)[C@H](CCC(=O)O)NC(=O)[C@H](CCC(=O)O)NC(=O)[C@H]([C@@H](C)CC)NC(=O)[C@H](CSSC[C@H](NC(C)=O)C(=O)N[C@@H](CCC(=O)O)C(=O)N[C@@H](Cc3ccc(O)cc3)C(=O)N[C@@H](CC(=O)O)C(=O)N[C@@H](CCC(=O)O)C(=O)N[C@@H](CCC(N)=O)C(=O)N[C@@H](Cc3ccccc3)C(=O)N[C@@H](Cc3ccccc3)C(=O)N[C@@H]([C@@H](C)O)C(=O)N[C@@H](C)C(=O)N[C@@H](CC(C)C)C(=O)N[C@@H](CCCCN)C(=O)N[C@@H](CCCNC(=N)N)C(=O)N[C@@H](CC(C)C)C(=O)N[C@@H](CCCNC(=N)N)C(=O)NCC(=O)NCC(=O)N[C@@H](CC(=O)O)C(=O)N[C@@H]([C@@H](C)CC)C(=O)N2)NC(=O)[C@H](CC(C)C)NC(=O)[C@H](CC(=O)O)NC(=O)[C@@H]2CCCN2C(=O)[C@H](CC(C)C)NC(=O)[C@H]([C@@H](C)O)NC(=O)[C@H](CC(N)=O)NC(=O)[C@H](Cc2ccccc2)NC(=O)[C@H](CCC(N)=O)NC(=O)[C@H](C)NC(=O)[C@H](CO)NC1=O [Compound C100] | 112 %ID/g | 61.8 %ID/g |
| {DOTA-PEG4}-CEYDEEFFTALKRLRGGDICYYIQKAFQYLPGLCIEEILDNLGCS-OH (disulfide 1-34, 20-44) [Compound C121] | 100 %ID/g | 60.4 %ID/g |
| {DOTA-PEG4}-CEYDEQFFTALSSLRGGDICYYIQEQFANVPGICIEEILDNLGCS-OH (disulfide 1-34, 20-44) [Compound C137] | 78.8 %ID/g | 42.9 %ID/g |
| {DOTA-PEG4}-CEYDEEFFTALSRLRGGDICYYIQQAFQYLPGLCIEEILDNLGCS-OH (disulfide 1-34, 20-44) [Compound C133] | 43.8 %ID/g | 20.9 %ID/g |
| {DOTA-PEG4}-CEYDEQFFTALARLRGGDICYYIQEQFATVPGLCIEEILDQLGCS-OH (disulfide 1-34, 20-44) [Compound C129] | 43.5 %ID/g | 19.9 %ID/g |

From patent US12427212B2, “Nectin-4 binding miniproteins, conjugates and uses thereof” (Aktis Oncology, Inc., priority 2023, dated 2025)
